Assay: method code SF, from DOI: 10.1016/j.ejps.2012.10.019, PMID: 23131797
Conditions: pH 2.0

Going from Cc1ccc(OCCC(=O)N2CCN(S(=O)(=O)c3cccs3)CC2)cc1 to O=C(OCc1c(F)cccc1Cl)c1cccc(S(=O)(=O)N2CCCC2)c1, the logD rises from 2.98 to 4.22.

First: Cc1cccc(C)c1NC(=O)Cn1cc(C(=O)C2CC2)c2ccccc21
Second: Cc1[nH]c2ccccc2c1C1=CN2CCS(=O)(=O)N=C2S1
The logD of the first is higher: 3.47 for the first, 1.56 for the second.

Work on Cc1ccc(C(=O)NCCc2ccc3c(c2)OCCO3)cc1[N+](=O)[O-] yielded a logD of 3.28.

Same assay, conditions: pH 5.0

Going from Cc1ccc(-c2cc(C(F)F)n3ncc(C(=O)N4CCSCC4)c3n2)cc1 to CSc1sc(C(=O)N2CCOCC2)c2c1S(=O)(=O)N(C)c1ccccc1-2, the logD falls from 4.55 to 3.11.

Going from Cc1sc2nc(SCC(=O)N3CCCC3)n(C3CCCCC3)c(=O)c2c1C to CCOc1ccc(-n2c(SCC(=O)NC3CC3)nc3sc4c(c3c2=O)CCC4)cc1, the logD falls from 5.16 to 4.64.

First: CCCC(=O)OCC(=O)Nc1ccc(F)cc1Cl
Second: CCCN(CC1CC1)C(=S)Nc1cc([N+](=O)[O-])ccc1Cl
The logD of the first is lower: 3.02 for the first, 4.1 for the second.

Going from Cc1ccc(NC(=O)CSc2nnc(Cc3ccccc3)o2)cc1Cl to O=C(NCCc1ccccc1)c1ccc(Cl)cc1, the logD falls from 4.85 to 3.71.

First: CCOC(=O)CSc1nnnn1-c1cccc2ccccc12
Second: CCc1ccc(-n2nnnc2SCC(=O)Nc2ccc(C(C)=O)cc2)cc1
The logD of the first is lower: 3.8 for the first, 4.69 for the second.

First: O=C(COC(=O)c1cccc(S(=O)(=O)N2CCc3ccccc32)c1)Nc1ccc(F)c(F)c1F
Second: COC(=O)c1cccc(NC(=O)CCN2C(=O)c3ccccc3C2=O)c1
The logD of the first is higher: 5.31 for the first, 3.39 for the second.

First: Cc1cc(C(=O)COC(=O)c2oc3ccccc3c2COC(C)C)c(C)n1-c1c(C)n(C)n(-c2ccccc2)c1=O
Second: COc1ccc(-c2nnc(SCc3cc(=O)oc4ccc5ccccc5c34)n2N)cc1
The logD of the first is higher: 5.39 for the first, 4.24 for the second.

Going from CCOc1cc(C#N)c(NC(=O)c2cc(S(=O)(=O)N3CCOCC3)c(Cl)cc2Cl)cc1OCC to COc1ccc(C(=O)Nc2cccc(F)c2)cc1S(=O)(=O)N1CCOCC1, the logD falls from 4.31 to 3.64.

Going from CC(C)NC(=O)COC(=O)c1ccc(S(=O)(=O)N2CCCCCC2)cc1 to Cc1ccc(N(CCOC(=O)c2ccc(S(=O)(=O)N3CCCCC3)cc2)C2=NS(=O)(=O)c3ccccc32)cc1, the logD rises from 3.78 to 5.58.

Compared with O=P(OCC(F)(F)F)(OCC(F)(F)F)N1CCOCC1, CCOc1nc(C#N)nc(N2CCOCC2)n1 is lower in logD: 2.69 for the first, 2.46 for the second.

First: CCCCOc1ccc(C(=O)N(CCN2C(=O)c3ccccc3C2=O)c2cccc(OC)c2)cc1
Second: CN(C1=NS(=O)(=O)c2ccccc21)c1ccc(OC(=O)c2ccccc2)cc1
The logD of the first is higher: 5.35 for the first, 4.26 for the second.

First: CCc1nc2sc(C#N)c(N)n2c(=O)c1C#N
Second: CCc1c(C#N)c(SCC(=O)N2CCc3cc(OC)c(OC)cc3C2)nc2c1C(=O)CC(C)(C)C2
The logD of the first is lower: 2.09 for the first, 4.89 for the second.

Going from COCc1cc(OC(=O)N(C)C)nc(SCC(=O)C(C)(C)C)n1 to CCc1cc(=O)oc2c(C)c(OCC(=O)OC(C)(C)C)ccc12, the logD rises from 3.33 to 4.52.

First: COc1cc2c(cc1OC)CN(C(=O)c1cccc(S(=O)(=O)N3CCCCC3)c1)CC2
Second: COc1ccc(S(=O)(=O)N(CC(=O)Nc2cccc([N+](=O)[O-])c2)C2CCCCC2)cc1Cl
The logD of the first is lower: 4.2 for the first, 5.48 for the second.

First: CC(=O)c1cc2ccccc2o1
Second: CC(NS(C)(=O)=O)c1ccccc1 (centres undefined)
The logD of the first is higher: 2.15 for the first, 1.8 for the second.

First: COC(=O)/C=C/CN1C(=O)c2ccccc2C1=O
Second: Cc1cccc(C(=O)Nc2ccc(NC(=O)c3ccccc3)c(C)c2)c1
The logD of the first is lower: 2.46 for the first, 4.14 for the second.

Compared with N#CCc1nc(-c2ccc3c(c2)OCCCO3)cs1, c1ccc2c(c1)OCCOCCOCCO2 is lower in logD: 2.68 for the first, 1.81 for the second.

First: CC(=O)NCCc1ccc(S(=O)(=O)N2CCOCC2)cc1
Second: CCOC(=O)c1c(C)[nH]c(C)c1C(=O)COC(=O)c1ccc(F)c(S(=O)(=O)N2CCOCC2)c1
The logD of the first is lower: 2 for the first, 3.63 for the second.

Clc1ccc(CSc2ncccn2)cc1Cl and COc1ccc(C(C)=O)cc1COC(=O)c1cc(Cl)ccc1Cl are within 0.2 log units of each other in logD: 4.33 for the first, 4.45 for the second.

O=C(Nc1ccccc1C(F)(F)F)C1CCC1 and O=C(c1ccc(F)cc1)C1CC1 are within 0.2 log units of each other in logD: 2.55 for the first, 2.61 for the second.

c1ccc(-n2nnnc2OCCOc2nnnn2-c2ccccc2)cc1 and Cc1ccc(S(=O)(=O)N(CCO)Cc2ccccc2)cc1 are within 0.2 log units of each other in logD: 3.72 for the first, 3.69 for the second.

Compared with COc1ccc(N2C3=C(C(=O)CC(C)(C)C3)C(c3ccc4c(c3)OCO4)C3=C2CC(C)(C)CC3=O)cc1, CCCCOc1ccc(C(=O)Oc2ccc3c(c2)OCO3)cc1OC is lower in logD: 5.72 for the first, 4.77 for the second.

First: CC(C)(C)NC(=S)Nc1ccc(F)cc1
Second: CCn1ccc(CN(C)C(=O)c2ccccc2COc2ccc(F)cc2F)n1
The logD of the first is lower: 2.71 for the first, 4.43 for the second.

Compared with COc1cccc(OCCn2c(=O)c3cc4c(=O)n(CCOc5cccc(OC)c5)c(=O)c4cc3c2=O)c1, COc1ccc(S(=O)(=O)n2c(=O)n(S(=O)(=O)c3ccc(OC)cc3)c3ccccc32)cc1 is lower in logD: 5.43 for the first, 5.22 for the second.

Going from COC(=O)c1ccc(C)c(NC(=O)Cc2coc3cc4c(cc23)CCC4)c1 to COC(=O)c1cc(C(=O)OCC(=O)c2[nH]c(C)c(C(C)=O)c2C)cc([N+](=O)[O-])c1, the logD falls from 4.78 to 3.82.

Going from C#CCOc1c(I)cc(C=C2C(=O)N(C)C(=S)N(C)C2=O)cc1OCC to CCn1cc(CN(C)C(=O)c2cc3cc(Br)ccc3oc2=O)c(C)n1, the logD falls from 3.72 to 3.27.

First: Cc1ccc(SCC(=O)NCc2cccc(CNC(=O)CSc3ccc(C)cc3)c2)cc1
Second: O=C(COc1ccc2ccccc2c1)N1CCN(S(=O)(=O)c2ccc3c(c2)OCCO3)CC1
The logD of the first is higher: 5.08 for the first, 4.47 for the second.

O=C(OCC(=O)N1CCC(Cc2ccccc2)CC1)C1CCCCC1 and Cc1ccc(S(=O)(=O)N2CCCN(S(=O)(=O)c3ccc(C)cc3C)CC2)c(C)c1 are within 0.2 log units of each other in logD: 4.98 for the first, 5.01 for the second.

Same assay, conditions: pH 6.5

Compared with CCCn1c(SCc2cc(=O)n3cc(Br)ccc3n2)nnc1-c1cccc(C)c1, CC1CCC2(CC1)N=C(c1ccccc1)C(=O)N2CC(=O)Nc1ccc2c(c1)OCCO2 (centres undefined) is higher in logD: 4.43 for the first, 5.07 for the second.

First: O=C(CSc1nc2ccccc2c(=O)n1-c1ccc(Cl)cc1)NC1CCCCC1
Second: N#Cc1nc(N2CCCC2)nc(N(c2ccccc2)c2ccccc2)n1
The logD of the first is lower: 4.92 for the first, 5.38 for the second.

CC(C)(C)c1cc(C(F)(F)F)nc(SCCNC(=O)C2CCCCC2)n1 and COC(=O)c1c(NC(NC(=O)c2cccnc2)(C(F)(F)F)C(F)(F)F)sc2c1CCCCC2 are within 0.2 log units of each other in logD: 5.77 for the first, 5.75 for the second.

Compared with C=CCNC(=O)CSc1nc(C(F)F)cc(-c2cn(C)nc2C)c1C#N, CC(=O)Nc1nc2cc3sc(NC(C)=O)nc3cc2s1 is lower in logD: 3.74 for the first, 3.13 for the second.

Going from COc1ccc(-c2nnc(N)s2)cc1OC to COC(=O)c1cccc(NC(=O)c2cc(C(=O)Nc3cccc(C(=O)OC)c3)cc(N3C(=O)c4ccccc4C3=O)c2)c1, the logD rises from 2.34 to 6.09.

Going from N#CC(=Cc1ccc2c(c1)OCO2)C(=O)NCc1cccc(CNC(=O)C(C#N)=Cc2ccc3c(c2)OCO3)c1 to O=C(Nc1ccc(N2CCN(C(=O)c3ccco3)CC2)c(Cl)c1)c1c(F)c(F)c(F)c(F)c1F, the logD rises from 4.92 to 5.85.

In the case of CS(=O)(=O)N(CC(=O)Nc1c(F)cccc1F)c1cc(Cl)c(Cl)cc1Cl, the logD is reported as 4.34.

Same assay, conditions: pH 7.0

With NNc1c(F)c(F)nc(F)c1F the logD was 0.86.

Same assay, conditions: pH 7.3

Going from O=C(c1nn(-c2ccccc2)c(=O)c2ccccc12)N1CCOCC1 to O=C(CSc1nnc(-c2ccccc2F)n1CCc1ccccc1)N1CCOCC1, the logD rises from 2.47 to 3.79.

Compared with C=CCn1c(SCC(=O)NCc2ccc(C(=O)OCC)cc2)nc2sc(C)c(C)c2c1=O, Cc1cc2ccccc2c(=O)n1CC(=O)NCC(=O)N1CCN(c2cccc(Cl)c2)CC1 is lower in logD: 4.83 for the first, 4.45 for the second.

First: COc1cccc(OC)c1C(=O)Nc1ccc(N2CCN(C(=O)c3ccccc3C)CC2)cc1
Second: CCN1C(=O)c2cccc3c(S(=O)(=O)N(C(=O)c4cccnc4)c4ccc(OC)cc4)ccc1c23
The logD of the first is lower: 4.16 for the first, 4.74 for the second.

Compared with CC1CCCC(C)N1C(=O)CSc1nnc(-c2ccco2)n1Cc1ccccc1 (centres undefined), NC(=O)CSc1nc2c(c(=O)n1Cc1ccco1)C1(CCCCC1)Cc1ccccc1-2 is higher in logD: 4.49 for the first, 5.45 for the second.

Compared with C=C(c1ccc(N(C)C)cc1)c1ccc(N(C)C)cc1, COc1cccc(-c2ccc3c(N)c(C(=O)Nc4ccc(F)c(F)c4)sc3n2)c1 is higher in logD: 5.3 for the first, 5.86 for the second.

Going from O=C(CSc1ncnc2sc3c(c12)CCC3)Nc1ccc(F)cc1 to Cn1c(SCC(=O)NC2CCCCCC2)nnc1-c1ccc(Cl)cc1, the logD falls from 4.69 to 4.21.

CC(C)CCn1c(NCCO)nc2c1c(=O)n(C)c(=O)n2C showed a logD of 2.93.

Same assay, conditions: pH 8.0

Compound Cc1cc(SCC(=O)NCc2ccc3c(c2)OCO3)nc2ccccc12 has a logD of 4.15.

Same assay, conditions: pH 10.0

Compared with Cc1ccc2c(C)nc(Nc3nc4c(c(=O)[nH]3)CCCC4)nc2c1, c1nc(NC2CCCC2)c2c3c(sc2n1)CCCC3 is higher in logD: 3.92 for the first, 4.17 for the second.

Going from CCOC(=O)C1=C(C)NC(C)=C(C(=O)OC)C1c1ccco1 (centres undefined) to CCc1noc(-c2[nH]c3ccccc3c2C(=O)C(=O)N(C)C)c1C, the logD falls from 3.67 to 2.68.

Compared with Nc1ccccc1Nc1ccccc1, Cc1cc(C)c(NC(=O)CSc2nnc(-c3ccc(OC(F)F)cc3)n2N)c(C)c1 is higher in logD: 2.67 for the first, 4.41 for the second.

CC1(C)CC(=O)C2=C(C1)OC(N)=C(C#N)C21CCC2(CC1)OCCO2 and O=C(c1ccc2c(c1)C(=O)N(c1nccs1)C2=O)c1ccc2c(c1)C(=O)N(c1nccs1)C2=O are within 0.2 log units of each other in logD: 3.24 for the first, 3.25 for the second.

Same assay, conditions: pH 10.5

Compared with Cn1c(N)c(C(=O)CSc2nc3ccccc3nc2SCC(=O)c2c(N)n(C)c(=O)n(C)c2=O)c(=O)n(C)c1=O, CCc1ccc2nc3c(cc2c1)c(=O)n(-c1ccccc1)c1c3c(=O)n(C)c(=O)n1C is higher in logD: 2.59 for the first, 4.31 for the second.

First: CC(C)(C)c1cc(-c2nc(-c3ccc(C(F)(F)F)cn3)no2)n(Cc2ccccc2)n1
Second: Cc1nnc2c(=O)n(CCNc3ncc(C(F)(F)F)cc3Cl)c3ccc(Cl)cc3n12
The logD of the first is higher: 6.58 for the first, 4.57 for the second.

Compared with COCCCNC(=O)c1cc(Br)c(C)c(C)c1C, CCOc1ccc(NC(=O)CN(C)C(=O)c2ccc(C)o2)cc1OCC is lower in logD: 2.93 for the first, 2.09 for the second.

First: Nc1nc(SCC(=O)N(CCO)CCO)nc2sc3c(c12)CCCC3
Second: Cc1cc(C)n2nc(SCC(=O)NCCNC(=O)CSc3nc4nc(C)cc(C)n4n3)nc2n1
The logD of the first is higher: 3.2 for the first, 0.82 for the second.

Going from CCN(CC)c1ccc(C=C2C(=O)c3ccccc3C2=O)c(OC)c1 to CCOc1cc(-c2nnc(-c3ccco3)o2)cc(OCC)c1OCC, the logD falls from 5.05 to 3.96.

Compared with CCCNC(=O)N1CCN(C(=O)NCCC)CC1, Cc1nc(N(C)C)c2sc(=S)n(-c3ccccc3)c2n1 is higher in logD: 1.04 for the first, 3.62 for the second.

Reference: the SangsterLogP compilation
